Assay results: US20260116847A1 (priority 2023, published 2026)
Each block holds one compound with its values, some of them ahead of it.

Experiments:
[1] = test system: tumor-specific antigens (CEA, CA 19/9, CA 125, prostate-specific antigen); conditions: meta-analysis of phase I/II trials, over 400 patients, solid tumors; cited from earlier work
[2] = test system: kainic acid-induced status epilepticus model; conditions: mouse study; cited from earlier work
[3] = Stability studies of solid forms under storage conditions, XRPD; format: physicochemical; conditions: 25° C./100% RH and 40° C./75% RH 7 days; 30°/100 mbar 1 hour; room temperature 1 year; above 150° C.
Procedure: Stability studies of the amorphous form, pure crystalline polymorphic forms I, II and III and the mixture of the crystalline polymorphic forms I and III were carried out under the following conditions: 25° C./100% RH (relative humidity) and 40° C./75% RH (relative humidity) for 7 days, at 30°/100 mbar for 1 hour, at room temperature for 1 year, and also at elevated temperature (above 150° C.).

[4] = Thermogravimetric analysis (TGA); format: physicochemical; conditions: 10° C./min; for weight loss (TG): 25° C.-195° C.; for degradation temperature (TG): range 25° C.-320° C.
Procedure: Thermogravimetric analysis for the crystalline polymorphic form I, II and III was performed using a Mettler Toledo TGA/DSC1 apparatus. The sample was weighed in an aluminum pan closed with an aluminum cover with holes.
[…] […] The degradation occurred above 200° C. The TG analysis proves that the crystalline polymorphic form I of marimastat exists in the anhydrous form.
[…] […] The degradation occurred above 200° C. The TG analysis proves that the crystalline polymorphic form II of marimastat exists in the anhydrous form.
This sample was analyzed by TGA-EGA. The analysis was performed at a temperature of 25° C.-320° C. at a rate of 10° C./min. […] The degradation occurred above 200° C. The TG analysis proves that the crystalline polymorphic form III of marimastat exists in the anhydrous form.

[5] = Solubility tests in water; format: physicochemical; conditions: comparison of forms I, II and III
Procedure: Solubility tests were performed by dissolving samples of pure forms of marimastat in water.

[6] = Stability of the forms I, II and III stirred together in various solvents, XRPD; format: physicochemical; conditions: for thermodynamic stability of the form: maceration of the mixture of all three forms in different solvents, room temperature, 4 days; for XRPD form after stirring: 25 °C, 4 d
Excerpt: The remaining 7 solvents gave the initial mixture of three polymorphic forms. Thus, when using the mixture of all three forms for maceration in different solvents, complete disappearance of the form II and the form III, complete disappearance of the form II, or all three forms remaining in the mixture were observed. The complete disappearance of the form I was not observed in any of the experiments.

[7] = Stability of the form II in various solvents at room temperature, XRPD; format: physicochemical; conditions: for XRPD form after stirring: 25 °C, 4 d
Procedure: The stability of the form II in various solvents at room temperature was tested. Experiments were performed by suspending the form II in 1 ml of solvent and the formed suspension was stirred at room temperature at 25° C. for 4 days. Then, the precipitate was filtered off and the samples were dried at a temperature of 30° C./100 mbar for one hour, followed by XRPD analysis.

[8] = Microscopic examinations / bulk density; format: physicochemical; conditions: comparison of the forms
Procedure: Microscopic examinations were performed using an optical microscope or electron microscope.

SMILES: CNC(=O)[C@@H](NC(=O)[C@H](CC(C)C)[C@H](O)C(=O)NO)C(C)(C)C [Marimastat, (2R,3S)—N-1-((S)-3,3-dimethyl-1-methylamino-1-oxobutan-2-yl)-N-4,3-dihydroxy-2-isobutylsuccinamide]
growth indicators of tumor-specific antigens [1]: significantly reduced all four growth indicators of tumor-specific antigens in a dose-dependent manner
duration and number of seizures [2]: reduced the duration and number of seizures

SMILES: CNC(=O)[C@@H](NC(=O)[C@H](CC(C)C)[C@H](O)C(=O)NO)C(C)(C)C [form III]
stability by XRPD (changes in diffraction lines) [3]: stable
weight loss (TG) [4]: 0.4%
degradation temperature (TG) [4]: above 200 °C
rate of dissolution in water [5]: fastest soluble in water
thermodynamic stability of the form [6]: kinetic forms

SMILES: CNC(=O)[C@@H](NC(=O)[C@H](CC(C)C)[C@H](O)C(=O)NO)C(C)(C)C [form II]
stability by XRPD (changes in diffraction lines) [3]: stable
weight loss (TG) [4]: 0.2%
degradation temperature (TG) [4]: above 200 °C
thermodynamic stability of the form [6]: kinetic forms
XRPD form after stirring ([7]; 2-propanol, 30 mg/mL): Form II
XRPD form after stirring ([7]; acetonitrile, 10 mg/mL): Form I
XRPD form after stirring ([7]; butyl acetate, 10 mg/mL): Form Il
XRPD form after stirring ([7]; ethanol, 10 mg/mL): Form II
XRPD form after stirring ([7]; methanol, 110 mg/mL): Form I
XRPD form after stirring ([7]; methylcyclohexane, 10 mg/mL): Form II
XRPD form after stirring ([7]; methylene chloride, 20 mg/mL): Form II
XRPD form after stirring ([7]; p-xylene, 20 mg/mL): Form II
XRPD form after stirring ([7]; water, 30 mg/mL): Form II
bulk density [8]: highest and comparable bulk density

SMILES: CNC(=O)[C@@H](NC(=O)[C@H](CC(C)C)[C@H](O)C(=O)NO)C(C)(C)C [form I]
stability by XRPD (changes in diffraction lines) [3]: stable
weight loss (TG) [4]: 0.3%
degradation temperature (TG) [4]: above 200 °C
rate of dissolution in water [5]: dissolves the slowest
thermodynamic stability of the form [6]: most thermodynamically stable
thermodynamic stability of the form ([7]; form II stirred in solvents, 25° C., 4 days): greatest thermodynamic stability
bulk density [8]: highest and comparable bulk density

Now from value to compound:

stability by XRPD (changes in diffraction lines) [3]: stable
SMILES: CNC(=O)[C@@H](NC(=O)[C@H](CC(C)C)[C@H](O)C(=O)NO)C(C)(C)C [mixture of the forms I and III]

XRPD form after stirring ([6]; 2-propanol, 30 mg/mL): Form I + Form III
XRPD form after stirring ([6]; acetone, 10 mg/mL): Form I
XRPD form after stirring ([6]; acetonitrile, 10 mg/mL): Form I
XRPD form after stirring ([6]; butyl acetate, 10 mg/mL): Form I + Form II + Form III
XRPD form after stirring ([6]; dimethoxyethane, 10 mg/mL): Form I
XRPD form after stirring ([6]; ethanol, 10 mg/mL): Form I
XRPD form after stirring ([6]; heptane, 10 mg/mL): Form I + Form II + Form III
XRPD form after stirring ([6]; methanol, 110 mg/mL): Form I
XRPD form after stirring ([6]; methyl isobutyl ketone, 10 mg/mL): Form I + Form II + Form III
XRPD form after stirring ([6]; methyl tert-butyl ether, 10 mg/mL): Form I + Form III
XRPD form after stirring ([6]; methylcyclohexane, 10 mg/mL): Form I + Form II + Form III
XRPD form after stirring ([6]; methylene chloride, 10 mg/mL): Form I + Form II + Form III
XRPD form after stirring ([6]; p-xylene, 10 mg/mL): Form I + Form II + Form III
XRPD form after stirring ([6]; tetrahydrofuran, 10 mg/mL): Form I
XRPD form after stirring ([6]; toluene, 10 mg/mL): Form I + Form II + Form III
XRPD form after stirring ([6]; water, 30 mg/mL): Form I + Form III
SMILES: CNC(=O)[C@@H](NC(=O)[C@H](CC(C)C)[C@H](O)C(=O)NO)C(C)(C)C [mixture of three polymorphic forms]
